Assay results: patent US20100152210A1, “PURINYL DERIVATIVES AND THEIR USE AS POTASSIUM CHANNEL MODULATORS” (NEURO SEARCH A/S/, priority 2007, published 2010)

Target: T1, hSK3 channels (Homo sapiens, UniProt Q9UGI6)
T1 construct: expressed in transfected cells; host or cells: HEK293
Test: Whole-cell patch-clamp recording of SK3 current in HEK293 cells expressing hSK3 channels
Format: cell-based
Protocol: The ionic current through small-conductance Ca^2+-activated K^+ channels (SK channels, subtype 3) is recorded using the whole-cell configuration of the patch-clamp technique in a classic patch-clamp set-up using HEK293 tissue culture cells expressing hSK3 channels as described in e.g. WO 2006/100212.
The SC100 value determined is defined as the Stimulating Concentration required for increasing the baseline current by 100%. The below SC100 value is an indication of the SK3 activating properties of the compounds of the invention.

Cc1cc(C)n(-c2nc(Nc3ccc(Cl)cc3)c3ncn(Cc4ccccc4)c3n2)n1 [Compound 9.1, [9-Benzyl-2-(3,5-dimethyl-pyrazol-1-yl)-9H-purin-6-yl]-(4-chloro-phenyl)-amine]
The SC100 (Stimulating Concentration required for increasing the baseline current by 100%): 0.04 µM
